Assay results as given in ChEMBL document CHEMBL1201862, “PubChem BioAssay data set” (2004).
Active and inactive are the calls of the source.

Columns and labels:
[1] = biological target: T1, E3 ubiquitin-protein ligase XIAP (Homo sapiens, UniProt P98170); experiment: small molecules displacing peptide from XIAP – biochemical, IAP family, fluorescence polarization (AID 1018); format: functional
[2] = biological target: T1, E3 ubiquitin-protein ligase XIAP; experiment: Counter Screen using XIAP-Bir3 for Chemical Antagonists of Bir1/2 domains of IAP-family anti-apoptotic proteins. [Related pubchem assays (depositor defined):AID1018, AID1449, AID1514, AID1638, AID1749, AID1750, AID488957, AID488963]
Cytochrome P450 3A4 = Cytochrome P450 3A4 (Homo sapiens, UniProt P08684); conditions: Potency;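 note: confirmatory qHTS run detecting inhibitors and substrates of CYP3A4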
Sequence of Cytochrome P450 3A4 (P08684 whole entry): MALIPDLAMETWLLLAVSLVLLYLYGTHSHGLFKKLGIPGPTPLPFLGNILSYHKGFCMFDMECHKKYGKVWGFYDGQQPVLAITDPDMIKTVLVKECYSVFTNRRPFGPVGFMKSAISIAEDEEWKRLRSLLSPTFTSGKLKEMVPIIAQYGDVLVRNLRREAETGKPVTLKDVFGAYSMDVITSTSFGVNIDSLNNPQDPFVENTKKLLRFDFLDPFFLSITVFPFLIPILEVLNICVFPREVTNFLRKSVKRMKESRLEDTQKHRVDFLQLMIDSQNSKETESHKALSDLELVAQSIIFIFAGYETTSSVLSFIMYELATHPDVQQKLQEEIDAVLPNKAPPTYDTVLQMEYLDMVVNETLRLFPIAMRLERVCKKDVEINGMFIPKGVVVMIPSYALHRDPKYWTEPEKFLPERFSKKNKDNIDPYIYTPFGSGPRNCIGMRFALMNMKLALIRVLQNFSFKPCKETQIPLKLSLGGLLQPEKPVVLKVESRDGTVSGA

[3] = A cytotoxicity screen of small molecule inhibitors of the PhoP region in Salmonella typhi identified in the primary screen. [Related pubchem assays: 1850, 1864, 1985 ]; format: functional
[4] = biological target: T2, Corticotropin-releasing factor receptor 2/Corticotropin-releasing factor-binding protein (Homo sapiens, UniProt P24387+Q13324); experiment: activators of CRF receptor 2 with binding protein – uHTS hits, confirmation (AID 602473); format: functional; conditions: read-out: EC50_Mean
T2 sequence (Q13324 whole entry): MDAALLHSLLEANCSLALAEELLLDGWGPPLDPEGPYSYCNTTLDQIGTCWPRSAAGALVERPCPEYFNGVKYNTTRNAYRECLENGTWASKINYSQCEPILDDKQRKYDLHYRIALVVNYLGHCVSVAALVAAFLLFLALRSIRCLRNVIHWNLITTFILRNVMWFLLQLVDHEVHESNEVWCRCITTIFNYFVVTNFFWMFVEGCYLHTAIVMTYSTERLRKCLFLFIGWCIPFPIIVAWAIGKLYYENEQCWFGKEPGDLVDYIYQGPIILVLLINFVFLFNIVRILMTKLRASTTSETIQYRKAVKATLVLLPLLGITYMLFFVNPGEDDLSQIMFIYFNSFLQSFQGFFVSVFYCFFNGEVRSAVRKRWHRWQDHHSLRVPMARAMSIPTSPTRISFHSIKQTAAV
T2 sequence (P24387 whole entry): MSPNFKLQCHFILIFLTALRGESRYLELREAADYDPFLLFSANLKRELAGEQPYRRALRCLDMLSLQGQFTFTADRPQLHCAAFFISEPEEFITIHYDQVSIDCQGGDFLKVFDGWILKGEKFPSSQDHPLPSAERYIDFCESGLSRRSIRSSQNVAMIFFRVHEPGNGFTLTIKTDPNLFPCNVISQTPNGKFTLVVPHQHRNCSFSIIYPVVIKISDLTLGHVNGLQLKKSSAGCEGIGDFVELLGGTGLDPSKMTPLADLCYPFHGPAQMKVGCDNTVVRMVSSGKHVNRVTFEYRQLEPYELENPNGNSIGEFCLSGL

[5] = blockers of CRF-binding protein–CRF-R2 complex – cell-based, uHTS hits, 384-well, dose response (AID 651639); format: functional, Homo sapiens; conditions: read-out: IC50_Mean
[6] = biological target: T2, Corticotropin-releasing factor receptor 2/Corticotropin-releasing factor-binding protein; experiment: Dose Response confirmation of uHTS hits for small molecule antagonists of the CRF-binding protein and CRF-R2 receptor complex.; format: functional; conditions: read-out: IC50_Mean
Prothrombin = Prothrombin (Homo sapiens, UniProt P00734); experiment: Thrombin 1536 HTS Dose Response Confirmation. [Related pubchem assays: 1046 (Thrombin 1536 HTS; hits were confirmed in this assay)]; format: functional
H9c2 = experiment: cells; format: functional, cell-based; conditions: Rattus norvegicus, H9c2, Myocardium;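 note: confirmatory concentration-response retest of ultra-high-throughput screening hits for modulation of myocardial damage; cell death induced by hydrogen peroxide oxidative stress; compound pretreatment for 60 min then peroxide exposure for 2 h; potency is for protecting the cells against peroxide damage rather than for killing them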
[7] = biological target: DNA dC->dU-editing enzyme APOBEC-3G (Homo sapiens, UniProt Q9HC16); experiment: Dose Response confirmation of small molecule APOBEC3G DNA Deaminase Inhibitors via a fluorescence-based single-stranded DNA deaminase assay. [Related pubchem assays (depositor defined):AID493012, AID493028]; format: functional
Sequence of DNA dC->dU-editing enzyme APOBEC-3G (Q9HC16 whole entry): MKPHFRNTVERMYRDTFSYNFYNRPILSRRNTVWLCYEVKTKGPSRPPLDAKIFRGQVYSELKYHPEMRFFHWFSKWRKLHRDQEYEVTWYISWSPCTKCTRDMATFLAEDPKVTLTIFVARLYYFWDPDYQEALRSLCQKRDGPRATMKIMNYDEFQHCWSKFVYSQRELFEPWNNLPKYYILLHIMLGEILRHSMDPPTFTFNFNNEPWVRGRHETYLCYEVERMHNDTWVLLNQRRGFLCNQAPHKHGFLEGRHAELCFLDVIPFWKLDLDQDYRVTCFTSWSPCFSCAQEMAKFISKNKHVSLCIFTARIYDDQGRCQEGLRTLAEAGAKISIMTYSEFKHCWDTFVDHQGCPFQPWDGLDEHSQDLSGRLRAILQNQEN

[8] = intracellular Trypanosoma cruzi inhibitors in host cells – cell-based, plate reader, cherry-pick samples, set 3, dose response (AID 651818); format: functional;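 note: compounds incubated with infected cells for about four days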

T1 sequence (P98170 whole entry): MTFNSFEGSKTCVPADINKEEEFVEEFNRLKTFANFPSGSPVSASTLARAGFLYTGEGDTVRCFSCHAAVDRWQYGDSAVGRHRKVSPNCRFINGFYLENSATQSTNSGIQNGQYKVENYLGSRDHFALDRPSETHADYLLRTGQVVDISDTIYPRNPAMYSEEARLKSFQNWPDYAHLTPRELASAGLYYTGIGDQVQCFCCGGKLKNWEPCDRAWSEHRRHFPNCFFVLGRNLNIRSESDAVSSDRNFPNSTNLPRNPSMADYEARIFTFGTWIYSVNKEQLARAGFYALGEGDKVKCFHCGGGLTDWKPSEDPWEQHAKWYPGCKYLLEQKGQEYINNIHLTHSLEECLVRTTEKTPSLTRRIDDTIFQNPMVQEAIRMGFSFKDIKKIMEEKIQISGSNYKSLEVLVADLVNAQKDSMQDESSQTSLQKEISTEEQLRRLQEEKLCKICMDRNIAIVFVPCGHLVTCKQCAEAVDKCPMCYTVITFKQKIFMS

For `Cc1ccc(S(=O)(=O)N(C)C)cc1NC(=S)NC12CC3CC(CC(C3)C1)C2`, the IC50 [1] was > 100 µM (not active) and the IC50 [2] was > 100 µM (inactive).
In the case of `CCCn1c(C)nc2c(N3CCOCC3)nc(C)nc21`, the AC50 (Cytochrome P450 3A4) is reported as 7.94 µM (inconclusive).
In the case of `CCOc1ccc(NC(=O)c2ccc(N)cc2)cc1`, the EC50 [3] is reported as > 50 µM (active).
In the case of `Nc1nnc(SCc2cc3c(cc2Cl)OCO3)s1`, the EC50 [4] is reported as > 53 µM (inactive), the IC50 [5] is reported as > 20 µM (inactive) and the IC50 [6] is reported as 22.5 µM (active).
With `Cc1cccc(NC(=S)NC23CN4CN(CN(C4)C2)C3)c1` the IC50 (Prothrombin) was > 50 µM (not active).
With `Cc1cccn2c(=O)c3cc(C(=O)NCC4CCCO4)c(=N)n(C4CCCC4)c3nc12` (stereo not drawn) the EC50 [3] was > 50 µM (active).
In the case of `O=C(Nc1cc(S(=O)(=O)N2CCOCC2)ccc1N1CCCCC1)c1cc(-c2ccccn2)nc2ccccc12`, the IC50 (H9c2) is reported as > 79 µM (inactive) and the IC50 [7] is reported as 92.6 µM (active).
In the case of `COc1ccccc1CCNC(=O)CCn1nc(C)c2c(C)n(-c3ccccc3)nc2c1=O`, the EC50 [4] is reported as > 53 µM (inactive), the IC50 [5] is reported as > 20 µM (inactive) and the IC50 [6] is reported as 41.1 µM (active).
With `C[C@@H]1CN([C@@H](C)CO)C(=O)Cc2cc(NC(=O)Nc3cccc4ccccc34)ccc2O[C@@H]1CN(C)Cc1ccc(C(F)(F)F)cc1` the AC50 [8] was 3.08 µM (active).
With `CSc1nc(C)c(C(=O)C[n+]2ccccc2C)cc1C#N` the EC50 [4] was > 53 µM (inactive), the IC50 [5] was > 20 µM (inactive) and the IC50 [6] was < 0.368 µM (active).
With `C[C@@H]1CCCCO[C@@H](CN(C)Cc2ccc(Cl)c(Cl)c2)[C@@H](C)CN([C@H](C)CO)C(=O)c2cc(NS(=O)(=O)c3ccc(F)cc3)ccc2O1` the AC50 [8] was 4.38 µM (active).
For `C[C@@H]1CN([C@@H](C)CO)C(=O)Cc2cc(NC(=O)Nc3ccc(C(F)(F)F)cc3)ccc2O[C@@H]1CN(C)Cc1ccc(C(F)(F)F)cc1`, the AC50 [8] was 3.26 µM (active).
For `COc1ccc(NC(=O)Nc2ccc3c(c2)CC(=O)N([C@@H](C)CO)C[C@@H](C)[C@@H](CN(C)Cc2ccc(C(=O)Nc4ccccc4N)cc2)O3)cc1`, the AC50 [8] was 2.51 µM (active).
With `C[C@@H]1CN([C@H](C)CO)C(=O)c2cccc(NC(=O)Nc3ccc4c(c3)OCO4)c2O[C@H]1CN(C)Cc1ccc(C(=O)Nc2ccccc2N)cc1` the AC50 [8] was 0.743 µM (active).
With `Cc1cc(C)n(/N=C/c2cc([N+](=O)[O-])ccc2O)c(=O)c1` the EC50 [3] was > 50 µM (active).
